In patent US12221631B2, “Engineered migrasome, method for preparing same, and uses thereof” (priority 2021, dated 2025):

What was measured:
[1] = system: Tspan4-GFP-expressing NRK cells; details: sodium chloride in DPBS replaced by chloride of the cation at equal molar concentration; five-step hypotonic stimulation
Procedure: Next, the effect of different cations on the formation of engineered migrasomes was tested.

[2] = system: Tspan4-GFP-expressing NRK cells; assay: Formation of engineered migrasomes after latrunculin A treatment and step-wise hypotonic stimulation; format: cell-based, rat; details: latrunculin A 0.25, 0.5, 1 μM in DPBS 10 min, then three-step hypotonic stimulation; promotion dose-dependent
Excerpt: The results after step-wise hypotonic treatment were shown in FIG. 2A, and the statistical results of the number of engineered migrasomes produced per cell were shown in FIG. 2B.

Compound	ability to promote the formation of engineered migrasomes [1]	number of engineered migrasomes produced per cell [2]
[Cl-].[Cs+] [cesium ions, cesium chloride]	significantly stronger ability	–
C[N+](C)(C)CCO.[Cl-] [choline ions, choline chloride]	significantly stronger ability	–
C/C1=C/C(=O)O[C@@H]2C[C@@H](CC[C@H](C)/C=C\C=C\CC1)O[C@@](O)([C@@H]1CSC(=O)N1)C2 [latrunculin A]	–	significantly promote an increase in the number of engineered migrasomes
[Cl-].[K+] [potassium ions, potassium chloride]	significantly stronger ability	–
[Cl-].[Na+] [sodium ions, sodium chloride]	relatively weak ability	–
